# Test results from the supplement of paper PMC10307832.
# Columns and labels:
# Experiment in all cases: relative viability (nuclei count vs DMSO), 5 days (fraction); higher = more cells survive
# NCI-H1648 = test system: NCI-H1648
# Outline: (§1)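 One day after seeding in 1536-well plates, lung cancer cell lines were dosed by pin tool. Dosing was either single-drug or a fixed anchor-drug dose plus five library-drug doses (not always all listed) in √10 steps. After 5 days, nuclei were stained in one fix-and-stain step and counted on 4× images, and relative viability is the nuclei count of treated wells over that of vehicle wells, given as the median of duplicate plates.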
# NCI-H1703 = test system: NCI-H1703
# Outline: as §1
# NCI-H2342 = test system: NCI-H2342
# Outline: as §1
# NCI-H522 = test system: NCI-H522
# Outline: as §1
# SW 900 = test system: SW 900
# Outline: as §1
# A549 = test system: A549
# Outline: as §1
# Calu-6 = test system: Calu-6
# Outline: as §1
# EBC-1 = test system: EBC-1
# Outline: as §1
# IA-LM = test system: IA-LM
# Outline: as §1
# NCI-H1299 = test system: NCI-H1299
# Outline: as §1
smiles,measurement,setting,value
O=C(O)CCCCC(CCSCc1ccccc1)SCc1ccccc1 (configuration not stated) [CPI-613] + NC(=O)Nc1cc(-c2cccc(F)c2)sc1C(=O)N[C@H]1CCCNC1 [AZD7762] (partner 0.2 µM),relative viability,NCI-H1648; first compound 5 µM,0.622
same,relative viability,NCI-H1648; first compound 15.81 µM,0.701
same,relative viability,NCI-H1648; first compound 50 µM,0.645
same,relative viability,NCI-H1648; first compound 158.11 µM,0.626
same,relative viability,NCI-H1648; first compound 500 µM,0.665
same,relative viability,NCI-H1703; first compound 5 µM,0.133
same,relative viability,NCI-H1703; first compound 15.81 µM,0.12
same,relative viability,NCI-H1703; first compound 50 µM,0.134
same,relative viability,NCI-H1703; first compound 158.11 µM,0.118
same,relative viability,NCI-H1703; first compound 500 µM,0.12
same,relative viability,NCI-H2342; first compound 5 µM,0.489
same,relative viability,NCI-H2342; first compound 15.81 µM,0.454
same,relative viability,NCI-H2342; first compound 50 µM,0.437
same,relative viability,NCI-H2342; first compound 158.11 µM,0.522
same,relative viability,NCI-H2342; first compound 500 µM,0.576
same,relative viability,NCI-H522; first compound 5 µM,0.899
same,relative viability,NCI-H522; first compound 15.81 µM,0.887
same,relative viability,NCI-H522; first compound 50 µM,0.953
same,relative viability,NCI-H522; first compound 158.11 µM,0.631
same,relative viability,NCI-H522; first compound 500 µM,0.563
same,relative viability,SW 900; first compound 5 µM,0.685
same,relative viability,SW 900; first compound 50 µM,0.692
same,relative viability,SW 900; first compound 158.11 µM,0.273
same,relative viability,SW 900; first compound 500 µM,0.0039
O=C(O)CCCCC(CCSCc1ccccc1)SCc1ccccc1 (configuration not stated) [CPI-613] + Nc1ncn([C@H]2C[C@H](O)[C@@H](CO)O2)c(=O)n1 [Decitabine] (partner 2 µM),relative viability,A549; first compound 5 µM,0.284
same,relative viability,A549; first compound 15.81 µM,0.195
same,relative viability,A549; first compound 50 µM,0.269
same,relative viability,A549; first compound 158.11 µM,0.259
same,relative viability,A549; first compound 500 µM,0.161
same,relative viability,NCI-H1648; first compound 5 µM,0.568
same,relative viability,NCI-H1648; first compound 15.81 µM,0.409
same,relative viability,NCI-H1648; first compound 50 µM,0.57
same,relative viability,NCI-H1648; first compound 158.11 µM,0.4
same,relative viability,NCI-H1648; first compound 500 µM,0.172
same,relative viability,NCI-H2342; first compound 5 µM,0.669
same,relative viability,NCI-H2342; first compound 15.81 µM,0.656
same,relative viability,NCI-H2342; first compound 50 µM,0.838
same,relative viability,NCI-H2342; first compound 158.11 µM,0.78
same,relative viability,NCI-H2342; first compound 500 µM,0.779
same,relative viability,NCI-H522; first compound 5 µM,0.678
same,relative viability,NCI-H522; first compound 15.81 µM,0.585
same,relative viability,NCI-H522; first compound 50 µM,0.697
same,relative viability,NCI-H522; first compound 158.11 µM,0.627
same,relative viability,NCI-H522; first compound 500 µM,0.3
same,relative viability,SW 900; first compound 5 µM,0.458
same,relative viability,SW 900; first compound 50 µM,0.429
same,relative viability,SW 900; first compound 158.11 µM,0.332
same,relative viability,SW 900; first compound 500 µM,0.0668
Cc1cnc(-c2cnc(NCCNc3ccc(C#N)cn3)nc2-c2ccc(Cl)cc2Cl)[nH]1 + O=C(c1cc(Cc2n[nH]c(=O)c3ccccc23)ccc1F)N1CCN(C(=O)C2CC2)CC1 [Olaparib] (partner 8 µM),relative viability,A549; first compound 0.08 µM,0.233
same,relative viability,A549; first compound 0.253 µM,0.264
same,relative viability,A549; first compound 0.8 µM,0.288
same,relative viability,A549; first compound 2.53 µM,0.3
same,relative viability,Calu-6; first compound 0.08 µM,0.532
same,relative viability,Calu-6; first compound 0.253 µM,0.547
same,relative viability,Calu-6; first compound 2.53 µM,0.468
same,relative viability,EBC-1; first compound 0.08 µM,0.619
same,relative viability,EBC-1; first compound 0.253 µM,0.608
same,relative viability,EBC-1; first compound 0.8 µM,0.673
same,relative viability,EBC-1; first compound 2.53 µM,0.9
same,relative viability,IA-LM; first compound 0.08 µM,0.77
same,relative viability,IA-LM; first compound 0.253 µM,0.766
same,relative viability,IA-LM; first compound 0.8 µM,0.87
same,relative viability,IA-LM; first compound 2.53 µM,0.709
same,relative viability,NCI-H1299; first compound 0.08 µM,0.953
same,relative viability,NCI-H1299; first compound 0.253 µM,0.957
same,relative viability,NCI-H1299; first compound 0.8 µM,0.968
same,relative viability,NCI-H1299; first compound 2.53 µM,0.856
same,relative viability,NCI-H1648; first compound 0.08 µM,0.723
same,relative viability,NCI-H1648; first compound 0.253 µM,0.761
same,relative viability,NCI-H1648; first compound 0.8 µM,1.2
same,relative viability,NCI-H1648; first compound 2.53 µM,0.865
same,relative viability,NCI-H1703; first compound 0.08 µM,0.48
same,relative viability,NCI-H1703; first compound 0.253 µM,0.378
same,relative viability,NCI-H1703; first compound 0.8 µM,0.448
same,relative viability,NCI-H1703; first compound 2.53 µM,0.486
same,relative viability,NCI-H2342; first compound 0.08 µM,0.438
same,relative viability,NCI-H2342; first compound 0.253 µM,0.387
same,relative viability,NCI-H2342; first compound 0.8 µM,0.43
same,relative viability,NCI-H2342; first compound 2.53 µM,0.439
same,relative viability,NCI-H522; first compound 0.08 µM,0.641
same,relative viability,NCI-H522; first compound 0.253 µM,0.668
same,relative viability,NCI-H522; first compound 0.8 µM,0.681
same,relative viability,NCI-H522; first compound 2.53 µM,0.643
same,relative viability,SW 900; first compound 0.08 µM,0.827
same,relative viability,SW 900; first compound 0.253 µM,0.913
same,relative viability,SW 900; first compound 0.8 µM,0.848
same,relative viability,SW 900; first compound 2.53 µM,0.561
Cc1cnc(-c2cnc(NCCNc3ccc(C#N)cn3)nc2-c2ccc(Cl)cc2Cl)[nH]1 + Nc1ncn([C@H]2C[C@H](O)[C@@H](CO)O2)c(=O)n1 [Decitabine] (partner 2 µM),relative viability,A549; first compound 0.08 µM,0.257
same,relative viability,A549; first compound 0.253 µM,0.254
same,relative viability,A549; first compound 0.8 µM,0.262
same,relative viability,A549; first compound 2.53 µM,0.316
same,relative viability,NCI-H1648; first compound 0.08 µM,0.444
same,relative viability,NCI-H1648; first compound 0.253 µM,0.453
same,relative viability,NCI-H1648; first compound 0.8 µM,0.554
same,relative viability,NCI-H1648; first compound 2.53 µM,0.541
same,relative viability,NCI-H2342; first compound 0.08 µM,0.727
same,relative viability,NCI-H2342; first compound 0.253 µM,0.548
same,relative viability,NCI-H2342; first compound 0.8 µM,0.671
same,relative viability,NCI-H2342; first compound 2.53 µM,0.66
same,relative viability,NCI-H522; first compound 0.08 µM,0.779
same,relative viability,NCI-H522; first compound 0.253 µM,0.68
same,relative viability,NCI-H522; first compound 0.8 µM,0.557
same,relative viability,NCI-H522; first compound 2.53 µM,0.63
same,relative viability,SW 900; first compound 0.08 µM,0.523
same,relative viability,SW 900; first compound 0.253 µM,0.436
same,relative viability,SW 900; first compound 0.8 µM,0.442
same,relative viability,SW 900; first compound 2.53 µM,0.393
